Laboratory results reported in patent publication US9763445B2, “Safened herbicidal compositions comprising a pyridine carboxylic acid herbicide” (Dow AgroSciences, LLC, priority 2014, dated 2017).

What was measured:
[1] = tested on: winter wheat (TRZAW); assay: Postemergence greenhouse trial, % visual injury on winter wheat; assay type: in vivo, Triticum aestivum; conditions: TRZAW
Summary of the method: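 Greenhouse crops at second to third true leaf stage sprayed postemergence at 187 L/ha with herbicide (g ae/ha) plus safener (g ai/ha) in acetone/DMSO diluted into 1.5% v/v Agri-dex. Injury scored visually versus solvent-blank controls after 20-22 d, 0 (none) to 100% (complete kill); expected mixture effects by Colby's equation.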

[2] = tested on: cornflower (CENCY); assay: Postemergence greenhouse trial, % visual injury on cornflower; assay type: in vivo, Centaurea cyanus or Cyanus segetum; conditions: CENCY
[3] = tested on: chickweed (STEME); assay: Postemergence greenhouse trial, % visual injury on chickweed; assay type: in vivo, Stellaria media; conditions: STEME
Summary of the method: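 Plants at second or third true leaf stage, greenhouse-grown (14 h photoperiod, ~23/22° C.), sprayed postemergence with compounds alone or with safener cloquintocet-mexyl in 1.5% v/v Agri-dex crop oil at 187 L/ha. Visual injury scored 0–100% versus solvent-blank controls after 20-22 d; expected mixture effects by Colby's equation.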

[4] = tested on: shepherd's purse (CAPBP); assay: Postemergence greenhouse trial, % visual injury on shepherd's purse; assay type: in vivo, Capsella bursa-pastoris
[5] = tested on: velvetleaf (ABUTH); assay: Postemergence greenhouse trial, % visual injury on velvetleaf; assay type: in vivo, Abutilon theophrasti; conditions: alone, 35 g/ha
Summary of the method: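 Visual injury, 0 (none) to 100 (complete kill), rated 20-22 d after overhead track-sprayer application at 187 L/ha; Colby's equation gave expected mixture responses. Herbicide (g ae/ha) and cloquintocet-mexyl safener (g ai/ha) diluted in aqueous 1.5% v/v Agri-dex, applied to weeds at 2–3 true leaves.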

[6] = tested on: corn/maize (ZEAMX); assay: Postemergence greenhouse trial, % visual injury on corn/maize; assay type: in vivo, Zea mays; conditions: alone, 35 g/ha
Summary of the method: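 Postemergence greenhouse spray (187 L/ha, 1.5% v/v Agri-dex in water, acetone/DMSO stocks) on plants at second–third true leaf stage, ~23/22 °C, 14 h photoperiod; herbicides in g ae/ha, safener cloquintocet-mexyl in g ai/ha. Visual injury 0–100% versus solvent-blank controls after 20–22 d; Colby's equation gave expected mixture effects.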

[7] = tested on: wild chamomile (MATCH); assay: Postemergence greenhouse trial, % visual injury on wild chamomile; assay type: in vivo, Matricaria chamomilla
Procedure: Seeds of the desired test plant species were planted in Sun Gro MetroMix® 306 planting mixture, which typically has a pH of 6.0 to 6.8 and an organic matter content of about 30 percent, in plastic pots with a surface area of 103.2 square centimeters (cm^2). When required to ensure good germination and healthy plants, a fungicide treatment and/or other chemical or physical treatment was applied. The plants were grown for 7-36 days (d) in a greenhouse with an approximate 14-hour (h) photoperiod which was maintained at about 23° C. during the day and 22° C. during the night. Nutrients and water were added on a regular basis and supplemental lighting was provided with overhead metal halide 1000-Watt lamps as necessary. The plants were employed for testing when they reached the second or third true leaf stage.
Weighed amounts of technical material were dissolved in a volume of 97:3 volume per volume (v/v) acetone/dimethyl sulfoxide (DMSO) to stock solutions. […] The concentrated stock solutions were diluted with an aqueous mixture of 1.5% v/v of Agri-dex crop oil concentrate to provide the appropriate application rates. Compound requirements are based upon a 12 milliliter (mL) application volume at a rate of 187 liters per hectare (L/ha). Stocks solutions of the safeners were prepared following the same procedure. Spray solutions of the safeners and experimental compound mixtures were prepared by adding the stock solutions to the appropriate amount of dilution solution to form a 12 mL spray solution in two-way combinations. Formulated compounds were applied to the plant material with an overhead Mandel track sprayer equipped with 8002E nozzles calibrated to deliver 187 L/ha over an application area of 0.503 square meters (m^2) at a spray height of 18 inches (43 centimeters (cm)) above average plant canopy. Control plants were sprayed in the same manner with the solvent blank. All herbicide application (component a) rates are in g ae/ha and all safener (component b) rates are in g ai/ha.
The treated plants and control plants were placed in a greenhouse as described above and watered by sub-irrigation to prevent wash-off of the test compounds. After 20-22 d, the condition of the test plants as compared with that of the control plants was determined visually and scored on a scale of 0 to 100 percent where 0 corresponds to no injury and 100 corresponds to complete kill. […] Colby's equation was used to determine the herbicidal effects expected from the mixtures. […]

[8] = compound 2 4.380 + CQC-m 0 g/ha

Structure (SMILES): Nc1c(F)c(-c2ccc3cc[nH]c3c2F)nc(C(=O)OCc2ccccc2)c1Cl [compound 2]
- % visual injury, observed (Ob) ([1]; compound 2 35 + CQC-m 0 g/ha): 20%
- % visual injury, observed (Ob) ([1]; compound 2 70 + CQC-m 0 g/ha): 30%
- % visual injury, observed (Ob) ([1]; compound 2 140 + CQC-m 0 g/ha): 50%
- % visual injury, observed (Ob) [2, 8]: 100%
- % visual injury, observed (Ob) ([2]; compound 2 8.75 + CQC-m 0 g/ha): 100%
- % visual injury, observed (Ob) ([2]; compound 2 17.5 + CQC-m 0 g/ha): 100%
- % visual injury, observed (Ob) ([2]; compound 2 35 + CQC-m 0 g/ha): 100%
- % visual injury, observed (Ob) ([2]; compound 2 70 + CQC-m 0 g/ha): 100%
- % visual injury, observed (Ob) [3, 8]: 25%
- % visual injury, observed (Ob) ([3]; compound 2 8.75 + CQC-m 0 g/ha): 68%
- % visual injury, observed (Ob) ([3]; compound 2 17.5 + CQC-m 0 g/ha): 97%
- % visual injury, observed (Ob) ([3]; compound 2 35 + CQC-m 0 g/ha): 100%
- % visual injury, observed (Ob) ([3]; compound 2 70 + CQC-m 0 g/ha): 100%
- % visual injury, observed (Ob) [4, 8]: 20%
- % visual injury, observed (Ob) ([4]; compound 2 8.75 + CQC-m 0 g/ha): 30%
- % visual injury, observed (Ob) ([4]; compound 2 17.5 + CQC-m 0 g/ha): 100%
- % visual injury, observed (Ob) ([4]; compound 2 35 + CQC-m 0 g/ha): 100%
- % visual injury, observed (Ob) ([4]; compound 2 70 + CQC-m 0 g/ha): 100%
- % visual injury, Ob [5]: 80%
- % visual injury, Ob [6]: 35%
- % visual injury, observed (Ob) [7, 8]: 30%
- % visual injury, observed (Ob) ([7]; compound 2 8.75 + CQC-m 0 g/ha): 58%
- % visual injury, observed (Ob) ([7]; compound 2 17.5 + CQC-m 0 g/ha): 91%
- % visual injury, observed (Ob) ([7]; compound 2 35 + CQC-m 0 g/ha): 98%
- % visual injury, observed (Ob) ([7]; compound 2 70 + CQC-m 0 g/ha): 100%
